Patent US20050164234A1, “Methods of using mammalian RNase H and compositions thereof” (priority 1997, published 2005)
Strand notation (5' to 3'): a small letter for the sugar, then the base; units joined by * are phosphorothioate-linked, units joined directly phosphodiester-linked; [ ] holds rarer units or linkages, { } end groups; capitals alone tell only the bases. e = 2'-O-(2-methoxyethyl) (MOE); [5mC] = 5-methylcytosine; d = 2'-deoxy (DNA)

Legend:
human RNase H2 [1] = assay: Antisense inhibition of human RNase H2 expression, Northern blot; type: cell-based; parameters: % of control / % inhibition: concentration or dose not given beside the values; conditions: for % inhibition / % of control: RNase H2 expression, Northern blot; for inhibition of human RNase H2 expression: summary of Table 3; for reduction of expression: dose response, A549 cells
Protocol: Total RNA was isolated from different human cell lines (ATCC, Rockville, Md.) using the guanidine isothiocyanate method (21). Ten μg of total RNA was separated on a 1.2% agarose/formaldehyde gel and transferred to Hybond-N+ (Amersham, Arlington Heights, Ill.) followed by fixing using UV crosslinker (Strategene, La Jolla, Calif.). The premade multiple tissue Northern Blot membranes were also purchased from Clontech (Palo Alto, Calif.). To detect RNase H2 mRNA, hybridization was performed by using ^32P-labeled human RNase H II cDNA in Quik-Hyb buffer (Strategene, La Jolla, Calif.) at 68 EC for 2 hours. After hybridization, membranes were washed in a final stringency of 0.1×SSC/0.1% SDS at 60 EC for 30 minutes and subjected to auto-radiography.
A series of antisense oligonucleotides were targeted to the human RNase H2 polynucleotide sequence (SEQ ID NO: 11). These compounds were all 2′-O-methoxyethyl “gapmers” with an 8-nucleotide deoxy gap and a phosphorothioate backbone. Cytosine residues are 5-methyl cytosines. The 2′-O-methoxyethyl (2′MOE) nucleotides are shown in bold.
The oligonucleotides shown in Table 2 were tested by Northern blot analysis for their ability to inhibit expression of human RNase H2. Results are expressed in Table 3.

human RNase H2 [2] = assay: Screen of antisense compounds (gapped oligonucleotides, siRNA) in cells against human RNase H2; type: cell-based; parameters: concentration or dose not given beside the values; conditions: percent inhibition of RNase H enzyme levels; target H2
Protocol: Oligonucleotides were identified by screening in cells (Crooke, S. T., 2003, in Burger's Medicinal Chemistry, 6th ed., pp 115-166; Vickers et al., 2003, J. Biol. Chem. 278, 7108-7118).
For this experiment oligoribonucleotides were purchased from Dharmacon Research, Inc. (Boulder Colo.). siRNA duplexes were formed in the solution containing 20 μM each oligoribonucleotide (sense strand shown and antisense strand complement—generally with a one base overhang at each end), 100 mM potassium acetate, 30 mM HEPES-KOH pH 7.4, 2 mM magnesium acetates. Reactions were heated for 1 minute at 90° C. and incubated for 1 hour at 37° C. The control gapped antisense oligonucleotide, is ISIS 29848, […] (SEQ ID NO: 104), where N is a mixture of A, G, C and T. Bold residues are 2′-MOE residues. The siRNA controls are either the single strand sense RNA strand or other RNA duplexes that are not complementary to the target. For transfection of cells, cells were incubated with a mixture of 3 μg/ml lipofectin (Invitrogen, Carlsbad Calif.) per 1-200 nM oligonucleotide or siRNA in OptiMEM medium (Invitrogen). After 4 hours the transfection mixture was aspirated from the cells and replaced with fresh medium containing 10% fetal bovine serum and the cells were incubated at 37° C. in 5% CO2 until harvest or second transfection.

GGTAGAGGGCATCTGCTTTG (eG*eG*eT*eA*eG*eA*dG*dG*dG*d[5mC]*dA*dT*d[5mC]*dT*eG*e[5mC]*eT*eT*eT*eG) [ISIS 21953]
% inhibition (human RNase H2 [1]): 59%
% of control (human RNase H2 [1]): 41%
inhibition of human RNase H2 expression (human RNase H2 [1]): at least 50%

TTTTGTCTTGGGATCATTGG (eT*eT*eT*eT*eG*eT*d[5mC]*dT*dT*dG*dG*dG*dA*dT*e[5mC]*eA*eT*eT*eG*eG) [ISIS 21956]
% inhibition (human RNase H2 [1]): 63%
% of control (human RNase H2 [1]): 37%
inhibition of human RNase H2 expression (human RNase H2 [1]): at least 50%
% Inhib (human RNase H2 [2]): 63.1%

CCCAGCCGACAAAGTCCGTG (all C 5-methyl, all phosphorothioate, sugars by position not given here; further chemistry not fully specified) [ISIS 21950, 2′-O-methoxyethyl gapmer, 8-nucleotide deoxy gap, phosphorothioate backbone, targeted to human RNase H2]
% inhibition (human RNase H2 [1]): 68%
% of control (human RNase H2 [1]): 32%
inhibition of human RNase H2 expression (human RNase H2 [1]): at least 50%

CAGTTTCTCCACGAATTGCC (antisense e[5mC]*eA*eG*eT*eT*eT*d[5mC]*dT*d[5mC]*d[5mC]*dA*d[5mC]*dG*dA*eA*eT*eT*eG*e[5mC]*e[5mC]) [ISIS 21955, 2′-O-methoxyethyl gapmer, 8-nucleotide deoxy gap, phosphorothioate backbone, targeted to human RNase H2]
% inhibition (human RNase H2 [1]): 33%
% of control (human RNase H2 [1]): 67%
% Inhib (human RNase H2 [2]): 33.3%

ACTCCAGGCCGCGTTCCAGG (antisense eA*e[5mC]*eT*e[5mC]*e[5mC]*eA*dG*dG*d[5mC]*d[5mC]*dG*d[5mC]*dG*dT*eT*e[5mC]*e[5mC]*eA*eG*eG) [ISIS 21959, 2′-O-methoxyethyl gapmer, 8-nucleotide deoxy gap, phosphorothioate backbone, targeted to human RNase H2]
% inhibition (human RNase H2 [1]): 82%
% of control (human RNase H2 [1]): 18%
inhibition of human RNase H2 expression (human RNase H2 [1]): at least 50%
% Inhib (human RNase H2 [2]): 81.2%

CCUGGAACGCGGCCUGGAGUC [Si 21959]
% Inhib (human RNase H2 [2]): 53.8%

GGCAAUUCGUGGAGAAACUGC [Si 21955]
% Inhib (human RNase H2 [2]): 19.2%

CCAGUUUGUCCGGUUCAGCUG [Si 21957]
% Inhib (human RNase H2 [2]): 42.4%

GACCAUCCUGGAGAAAGAGGC [Si 21958]
% Inhib (human RNase H2 [2]): 45.8%

GCACACTCCCACCTTGCTTC (chemistry not fully specified) [ISIS 21961, 2′-O-methoxyethyl gapmer, 8-nucleotide deoxy gap, phosphorothioate backbone, targeted to human RNase H2]
% inhibition (human RNase H2 [1]): 7%
% of control (human RNase H2 [1]): 93%
% Inhib (human RNase H2 [2]): 6.1%

CGCCTCAGCCGCCACCACCA (all C 5-methyl, all phosphorothioate, sugars by position not given here; further chemistry not fully specified) [ISIS 21946, 2′-O-methoxyethyl gapmer, 8-nucleotide deoxy gap, phosphorothioate backbone, targeted to human RNase H2]
% inhibition (human RNase H2 [1]): 50%
% of control (human RNase H2 [1]): 50%
inhibition of human RNase H2 expression (human RNase H2 [1]): at least 50%

CCCGCTCGCTCTCCAATAGG (all C 5-methyl, all phosphorothioate, sugars by position not given here; further chemistry not fully specified) [ISIS 21949, 2′-O-methoxyethyl gapmer, 8-nucleotide deoxy gap, phosphorothioate backbone, targeted to human RNase H2]
% inhibition (human RNase H2 [1]): 82%
% of control (human RNase H2 [1]): 18%
inhibition of human RNase H2 expression (human RNase H2 [1]): at least 50%

GGUCCAGCUACUUCCUUUUGG [Si 21962]
% Inhib (human RNase H2 [2]): 0%

AGCTGAACCGGACAAACTGG (antisense eA*eG*e[5mC]*eT*eG*eA*dA*d[5mC]*d[5mC]*dG*dG*dA*d[5mC]*dA*eA*eA*e[5mC]*eT*eG*eG) [ISIS 21957, 2′-O-methoxyethyl gapmer, 8-nucleotide deoxy gap, phosphorothioate backbone, targeted to human RNase H2]
% inhibition (human RNase H2 [1]): 68%
% of control (human RNase H2 [1]): 32%
inhibition of human RNase H2 expression (human RNase H2 [1]): at least 50%
% Inhib (human RNase H2 [2]): 68.1%

CGGTGTCCACGAATACCTGG (all C 5-methyl, all phosphorothioate, sugars by position not given here; further chemistry not fully specified) [ISIS 21951, 2′-O-methoxyethyl gapmer, 8-nucleotide deoxy gap, phosphorothioate backbone, targeted to human RNase H2]
% inhibition (human RNase H2 [1]): 74%
% of control (human RNase H2 [1]): 26%
inhibition of human RNase H2 expression (human RNase H2 [1]): at least 50%

GAAGCAAGGUGGGAGUGUGCU [Si 21961]
% Inhib (human RNase H2 [2]): 15.2%

CCACCTTGGCACAGATGCTG (all C 5-methyl, all phosphorothioate, sugars by position not given here; further chemistry not fully specified) [ISIS 21954, 2′-O-methoxyethyl gapmer, 8-nucleotide deoxy gap, phosphorothioate backbone, targeted to human RNase H2]
% inhibition (human RNase H2 [1]): 77%
% of control (human RNase H2 [1]): 23%
inhibition of human RNase H2 expression (human RNase H2 [1]): at least 50%

CCTACGTGTGGTTCTCCTTA (antisense e[5mC]*e[5mC]*eT*eA*e[5mC]*eG*dT*dG*dT*dG*dG*dT*dT*d[5mC]*eT*e[5mC]*e[5mC]*eT*eT*eA) [ISIS 21960, 2′-O-methoxyethyl gapmer, 8-nucleotide deoxy gap, phosphorothioate backbone, targeted to human RNase H2]
% inhibition (human RNase H2 [1]): 92%
% of control (human RNase H2 [1]): 8%
reduction of expression (human RNase H2 [1]; 200 nM): > 80%
reduction of expression (human RNase H2 [1]; lowest dose tested 50 nM): 60%
inhibition of human RNase H2 expression (human RNase H2 [1]): at least 50%
% Inhib (human RNase H2 [2]): 91.7%

CACAGGCGAACTCAGGCGAC (all C 5-methyl, all phosphorothioate, sugars by position not given here; further chemistry not fully specified) [ISIS 21947, 2′-O-methoxyethyl gapmer, 8-nucleotide deoxy gap, phosphorothioate backbone, targeted to human RNase H2]
% inhibition (human RNase H2 [1]): 63%
% of control (human RNase H2 [1]): 37%
inhibition of human RNase H2 expression (human RNase H2 [1]): at least 50%

CGCGCCTGGTATGTCTCTGG (all C 5-methyl, all phosphorothioate, sugars by position not given here; further chemistry not fully specified) [ISIS 21952, 2′-O-methoxyethyl gapmer, 8-nucleotide deoxy gap, phosphorothioate backbone, targeted to human RNase H2]
% inhibition (human RNase H2 [1]): 89%
% of control (human RNase H2 [1]): 11%
reduction of expression (human RNase H2 [1]; 200 nM): approximately 70%
reduction of expression (human RNase H2 [1]; lowest dose tested 50 nM): 60%
inhibition of human RNase H2 expression (human RNase H2 [1]): at least 50%

CAAAAGGAAGTAGCTGGACC (antisense e[5mC]*eA*eA*eA*eA*eG*dG*dA*dA*dG*dT*dA*dG*d[5mC]*eT*eG*eG*eA*e[5mC]*e[5mC]) [ISIS 21962, 2′-O-methoxyethyl gapmer, 8-nucleotide deoxy gap, phosphorothioate backbone, targeted to human RNase H2]
% inhibition (human RNase H2 [1]): 37%
% of control (human RNase H2 [1]): 63%
% Inhib (human RNase H2 [2]): 36.0%

GGACAATAACAGATGGCGTA (eG*eG*eA*e[5mC]*eA*eA*dT*dA*dA*d[5mC]*dA*dG*dA*dT*eG*eG*e[5mC]*eG*eT*eA) [ISIS 21948]
% inhibition (human RNase H2 [1]): 62%
% of control (human RNase H2 [1]): 38%
inhibition of human RNase H2 expression (human RNase H2 [1]): at least 50%

UAAGGAGAACCACACGUAGGG [Si 21960]
% Inhib (human RNase H2 [2]): 9.9%

CCTCTTTCTCCAGGATGGTC (antisense e[5mC]*e[5mC]*eT*e[5mC]*eT*eT*dT*d[5mC]*dT*d[5mC]*d[5mC]*dA*dG*dG*eA*eT*eG*eG*eT*e[5mC]) [ISIS 21958, 2′-O-methoxyethyl gapmer, 8-nucleotide deoxy gap, phosphorothioate backbone, targeted to human RNase H2]
% inhibition (human RNase H2 [1]): 38%
% of control (human RNase H2 [1]): 62%
% Inhib (human RNase H2 [2]): 38.0%
